According to patent publication US20040166058A1, “Ethylenedicysteine (EC)-drug conjugates, compositions and methods for tissue specific disease imaging” (Board of Regents, The University of Texas System, priority 2002, published 2004):

How the values were obtained:
[1] = tested on: human lung cancer cells (A549 tumor cell line); experiment: Biodistribution in lung tumor-bearing nude mice; type: in vivo, athymic nude mice; conditions: for Biodistribution Blood / Biodistribution Brain / Biodistribution Heart / Biodistribution Intestine / Biodistribution Kidney / Biodistribution Liver / Biodistribution Lung / Biodistribution Muscle / Biodistribution Spleen / Biodistribution Stomach / Biodistribution Thyroid / Biodistribution Tumor / Tumor/Blood / Tumor/Lung / Tumor/Muscle: intravenously
Protocol: Female athymic nude mice (NCr-nu/nu, NCI, Bethasda, Md.) were inoculated with human lung cancer cells (A549 tumor cell line, 3×10^6 cells/mouse, intramuscular) by one author in the mid-dorsal region. After the tumor reached 6 mm, separate biodistribution studies using ^99mTc-EC-DG and 18F-FDG were conducted. Each received ^99mTc-EC-DG or 18F-FDG intravenously (n=3/time point). The injection activity was 1-3 μCi/mouse. The injected mass of ^99mTc-EC-DG was 0.2 mg/rodent.

[2] = tested on: 13762 tumor cell line mammary tumor; experiment: Gamma scintigraphic imaging in Fischer 344 rats with 13762 mammary tumor; type: in vivo; conditions: 0.5, 2 and 4 hours after i.v. injection of 300 μCi
Protocol: Female Fischer 344 rats (250-275 g each) (Harlan, Inc., Indianapolis, Ind.) were inoculated with mammary tumor cells by one author from the 13762 tumor cell line (s.c. 10^6 cells/rat, a tumor cell line specific to Fischer rats). After 8-10 days, tumor volumes of 0.3-0.6 cm were measured. Scintigraphic images were obtained 0.5, 2 and 4 hours after i.v. injection of 300 μCi of ^99mTc-EC or ^99mTc-EC-DG (n=3/agent, total 6 rats). ROI between tumor tissue and muscle (at symmetric site) was used to determine tumor/non-tumor ratios. The smallest tumor volume that could be detected by ^99mTc-EC-DG was 3 mm.

[3] = In vitro cell culture of ^99mTc-EC-DG with or without transition chelators; type: cell-based; conditions: kit formulation
Source text: It may also be important to include an antioxidant and a transition chelator in the composition to prevent oxidation of the ethylenedicysteine. For example, the antioxidant may be vitamin C (ascorbic acid). However, other antioxidants known to those of ordinary skill in the art, such as tocopherol, pyridoxine, thiamine, or rutin, may also be used. Any transition chelator known to those of ordinary skill in the art may be used in conjunction with the present invention. Examples of transition chelators include glucoheptonate, gluconate, glucarate, citrate, and tartarate.

## O=C(NC1C(O)OC(CO)C(O)C1O)C1C[S][99Tc]23(=[O])[S]CC(C(=O)NC4C(O)OC(CO)C(O)C4O)[N]2CC[N]13 (stereo not drawn) [^99mTc-EC-DG]
[1]; 30 min
  Biodistribution Blood: 1.607 ± 0.389 % of injected dose per gram of tissue weight
  Biodistribution Brain: 0.058 ± 0.008 % of injected dose per gram of tissue weight
  Biodistribution Heart: 0.611 ± 0.193 % of injected dose per gram of tissue weight
  Biodistribution Intestine: 0.510 ± 0.093 % of injected dose per gram of tissue weight
  Biodistribution Kidney: 6.726 ± 1.842 % of injected dose per gram of tissue weight
  Biodistribution Liver: 5.674 ± 2.089 % of injected dose per gram of tissue weight
  Biodistribution Lung: 1.048 ± 0.259 % of injected dose per gram of tissue weight
  Biodistribution Muscle: 0.264 ± 0.072 % of injected dose per gram of tissue weight
  Biodistribution Spleen: 3.240 ± 1.709 % of injected dose per gram of tissue weight
  Biodistribution Stomach: 0.540 ± 0.113 % of injected dose per gram of tissue weight
  Biodistribution Thyroid: 0.929 ± 0.212 % of injected dose per gram of tissue weight
  Biodistribution Tumor: 0.787 ± 0.163 % of injected dose per gram of tissue weight
  Tumor/Blood: 0.499 ± 0.022
  Tumor/Lung: 0.769 ± 0.047
  Tumor/Muscle: 3.352 ± 0.749
[1]; 2 h
  Biodistribution Blood: 0.977 ± 0.267 % of injected dose per gram of tissue weight
  Biodistribution Brain: 0.042 ± 0.006 % of injected dose per gram of tissue weight
  Biodistribution Heart: 0.336 ± 0.080 % of injected dose per gram of tissue weight
  Biodistribution Intestine: 0.417 ± 0.110 % of injected dose per gram of tissue weight
  Biodistribution Kidney: 5.687 ± 1.540 % of injected dose per gram of tissue weight
  Biodistribution Liver: 5.807 ± 1.708 % of injected dose per gram of tissue weight
  Biodistribution Lung: 0.721 ± 0.210 % of injected dose per gram of tissue weight
  Biodistribution Muscle: 0.148 ± 0.039 % of injected dose per gram of tissue weight
  Biodistribution Spleen: 4.205 ± 1.374 % of injected dose per gram of tissue weight
  Biodistribution Stomach: 0.439 ± 0.138 % of injected dose per gram of tissue weight
  Biodistribution Thyroid: 0.665 ± 0.207 % of injected dose per gram of tissue weight
  Biodistribution Tumor: 0.415 ± 0.123 % of injected dose per gram of tissue weight
  Tumor/Blood: 0.424 ± 0.022
  Tumor/Lung: 0.587 ± 0.046
  Tumor/Muscle: 2.754 ± 0.120
[1]; 4 h
  Biodistribution Blood: 0.787 ± 0.152 % of injected dose per gram of tissue weight
  Biodistribution Brain: 0.042 ± 0.006 % of injected dose per gram of tissue weight
  Biodistribution Heart: 0.318 ± 0.071 % of injected dose per gram of tissue weight
  Biodistribution Intestine: 0.374 ± 0.073 % of injected dose per gram of tissue weight
  Biodistribution Kidney: 4.318 ± 0.890 % of injected dose per gram of tissue weight
  Biodistribution Liver: 6.656 ± 1.786 % of injected dose per gram of tissue weight
  Biodistribution Lung: 0.606 ± 0.128 % of injected dose per gram of tissue weight
  Biodistribution Muscle: 0.147 ± 0.022 % of injected dose per gram of tissue weight
  Biodistribution Spleen: 5.933 ± 3.194 % of injected dose per gram of tissue weight
  Biodistribution Stomach: 0.541 ± 0.119 % of injected dose per gram of tissue weight
  Biodistribution Thyroid: 0.692 ± 0.119 % of injected dose per gram of tissue weight
  Biodistribution Tumor: 0.414 ± 0.161 % of injected dose per gram of tissue weight
  Tumor/Blood: 0.502 ± 0.120
  Tumor/Lung: 0.640 ± 0.120
  Tumor/Muscle: 2.795 ± 0.982
[1]; as a function of time
  tumor/muscle and tumor/brain ratios, ^99mTc-EC-DG versus 18F-FDG: higher tumor/muscle and tumor/brain ratios
[2]
  organs visualized: Heart, kidneys, liver, and bladder were visualized
[3]
  stability with or without transition chelators (gluconate and glucarate): does not interfere with the stability
